# Test results published in patent US4867973A, “Antibody-therapeutic agent conjugates” (Cytogen Corporation, priority 1984, dated 1989).
# Ends that are not written are not given here. Peptide text beside a SMILES is read from it. * marks the point of attachment. AMC = Cc1cc(=O)oc2cc(N*)ccc12; Boc = CC(C)(C)OC(=O)*
# Key:
# Format in all cases: biochemical
# [1] = tested on: trypsin; experiment: Fluorescence assay of AMC release from peptide linker by trypsin; details: for Cleavage Rates, Trypsin: trypsin 0.1 ug/ml, peptide 5 uM
# Experimental: (§1) The rates of cleavage for the peptide linker were measured by fluorescence quenching using a Perkin Elmer 650-10S fluorescence spectrometer (Perkin-Elmer Corporation, Norwalk, Conn.). The excitation and emission wavelengths were 380 nm and 460 nm, respectively and the temperature was maintained at 25° C. with a Lauda k-2/R circulating water bath (Brinkmann Instruments, Westbury, N.Y.).
# (§2) The initial concentrations of Gly-Gly-Arg-AMC were determined by optical density, Σ^1M325 =16,000. The solutions were adjusted to 1 uM concentrations. One ml of the 1 uM solution in PBS, pH 7.4 was placed in a cuvette. The appropriate amounts of enzyme (1 ug/ml trypsin or 10 ug/ml urokinase) was then added at room temperature with stirring using a motor-driven syringe and the reaction kinetics were followed for several minutes. The fluorescence intensity of a known concentration of free AMC was established and used as a baseline to determine the change in units per nM/minute of free AMC in this fluorescence assay system.
# (§3) In another experiment, the Gly-Gly-Arg-AMC concentration was 100 uM and the trypsin used at 100 ug/ml. In another embodiment of the present invention, the Gly-Gly-Arg-AMC was conjugated to oxidized dextran which can serve as a spacer as described in Section 5.4.3 (10,000 molecular weight) (Pharmacia Fine Chemicals, Piscataway, N.J.) by the methods of the present invention using a molar ratio of Gly-Gly-Arg-AMC to dextran of 58:1. Dextran-Gly-Gly-Arg-AMC was separated with a 6.5 ml Sephadex® G-25 column (Pharmacia Fine Chemicals, Piscataway, N.J.).
# (§4) Peptide sequences that are analogs of complement components were cleaved by trypsin (0.1 ug/ml), urokinase (0.1 ug/ml), plasmin (1 ug/ml) and purified complement components C4,2 and C1s (40 ug/ml). The data in Table V compare the cleavage rates (nM/minute) of these sequences. The fluorescence assay described in Section 8 for cleavage of Gly-Gly-Arg-AMC was used here. Complement components were purified and assayed by the method of Tack and Prahl (Biochem., 1976, 15:4513-4521).
# [2] = biological target: T1, urokinase (Homo sapiens, UniProt P00749); experiment: Fluorescence assay of AMC release from peptide linker by urokinase; details: urokinase 0.1 ug/ml; peptide 5 uM
# Experimental: as §1, §2, §3, §4
# [3] = biological target: T1, urokinase; experiment: Release of 125I-Tyr from radiolabeled peptide by urokinase (agarose gel electrophoresis or TLC); details: urokinase 10 ug/ml; substrate 0.1 uM; 125I-Tyr release
# Experimental: (§5) For the purposes of the present example, the tetrapeptide Glycine-Glycine-Arginine-Tyrosine was radiolabeled at the amino acid residue tyrosine with 125 Iodine (125 I) (Greenwood et al. 1963, Biochem. J. 88: 114-120). This radiolabeled compound is hereinafter referred to as Gly-Gly-Arg-Tyr* (wherein the * denotes ^125 I).
# (§6) The peptide Gly-Gly-Arg-Tyr* was assayed for the release of the 125I labeled tyrosine residue by agarose gel electrophoresis or thin-layer chromatography (TLC, Sono and Asakura, 1974, Biochem 13:4386-4394). Briefly, appropriate amounts of enzyme were added to a reaction tube containing 0.1 uM Gly-Gly-Arg-Tyr in PBS, pH 7.4. The mixture was incubated at 37° C. for 30 minutes. Three ul of this reaction mixture were then applied to an agarose gel (1%) and run at high voltage (120 V/cm) in Barbitol Buffer, 0.025 M sodium diethylbarbituate HCl buffer, pH 8.6. Three ul of bromophenol blue solution was used as a marker to determine the end of the run. The agarose gel was then cut into sections and counted in a LKB 1271 gamma counter (LKB Instruments, Gaithersburg, Md.) to determine if the Tyr remained at the origin or migrated through the gel. Alternatively, samples were separated and identified by TLC as described supra. […] The plate was dried and divided into ten sections which were counted in a gamma counter. […]
# [4] = tested on: trypsin; experiment: Release of 125I-Tyr from radiolabeled peptide by trypsin (agarose gel electrophoresis or TLC); details: trypsin 1 ug/ml; substrate 0.1 uM; 125I-Tyr release
# Experimental: as §5, §6
# [5] = biological target: T2, purified complement component C4,2 (Homo sapiens, UniProt P06681); experiment: Fluorescence assay of AMC release by purified complement component C4,2; details: 40 ug/ml enzyme; peptide 5 uM
# T2 construct: from tissue
# T2 sequence (P06681 244-752 limits assumed): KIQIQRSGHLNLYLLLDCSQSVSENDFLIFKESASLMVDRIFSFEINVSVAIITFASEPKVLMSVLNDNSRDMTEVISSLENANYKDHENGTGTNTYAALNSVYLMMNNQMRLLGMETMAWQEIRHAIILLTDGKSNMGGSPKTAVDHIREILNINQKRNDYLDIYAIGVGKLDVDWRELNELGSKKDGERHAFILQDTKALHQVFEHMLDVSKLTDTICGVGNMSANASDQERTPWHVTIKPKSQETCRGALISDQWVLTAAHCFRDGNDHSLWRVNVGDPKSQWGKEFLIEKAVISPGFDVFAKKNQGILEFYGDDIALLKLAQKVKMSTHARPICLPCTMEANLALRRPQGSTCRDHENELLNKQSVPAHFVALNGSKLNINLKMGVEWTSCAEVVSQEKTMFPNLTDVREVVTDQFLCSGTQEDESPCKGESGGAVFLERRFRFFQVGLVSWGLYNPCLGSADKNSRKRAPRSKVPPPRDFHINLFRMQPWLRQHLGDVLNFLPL
# T2 sequence (P0C0L4 20-675 partner limits assumed): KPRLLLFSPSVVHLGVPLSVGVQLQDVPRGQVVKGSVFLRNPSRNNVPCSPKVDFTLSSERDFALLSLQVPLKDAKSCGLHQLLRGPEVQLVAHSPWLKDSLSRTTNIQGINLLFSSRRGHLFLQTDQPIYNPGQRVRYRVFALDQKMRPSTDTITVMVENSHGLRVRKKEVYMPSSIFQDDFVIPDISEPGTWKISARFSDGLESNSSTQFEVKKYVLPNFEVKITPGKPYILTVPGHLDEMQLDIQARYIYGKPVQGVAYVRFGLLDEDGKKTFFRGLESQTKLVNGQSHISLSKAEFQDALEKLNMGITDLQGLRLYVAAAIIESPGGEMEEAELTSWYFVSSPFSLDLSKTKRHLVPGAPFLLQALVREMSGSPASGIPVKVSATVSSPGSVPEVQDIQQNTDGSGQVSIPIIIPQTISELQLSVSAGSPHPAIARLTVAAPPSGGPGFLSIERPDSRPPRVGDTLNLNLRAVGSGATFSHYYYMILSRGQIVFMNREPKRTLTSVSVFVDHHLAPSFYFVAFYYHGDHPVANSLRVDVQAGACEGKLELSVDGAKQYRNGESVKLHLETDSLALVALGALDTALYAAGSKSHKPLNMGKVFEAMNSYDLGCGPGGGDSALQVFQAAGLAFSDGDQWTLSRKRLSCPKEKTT
# T2 sequence (P0C0L4 757-1446 partner limits assumed): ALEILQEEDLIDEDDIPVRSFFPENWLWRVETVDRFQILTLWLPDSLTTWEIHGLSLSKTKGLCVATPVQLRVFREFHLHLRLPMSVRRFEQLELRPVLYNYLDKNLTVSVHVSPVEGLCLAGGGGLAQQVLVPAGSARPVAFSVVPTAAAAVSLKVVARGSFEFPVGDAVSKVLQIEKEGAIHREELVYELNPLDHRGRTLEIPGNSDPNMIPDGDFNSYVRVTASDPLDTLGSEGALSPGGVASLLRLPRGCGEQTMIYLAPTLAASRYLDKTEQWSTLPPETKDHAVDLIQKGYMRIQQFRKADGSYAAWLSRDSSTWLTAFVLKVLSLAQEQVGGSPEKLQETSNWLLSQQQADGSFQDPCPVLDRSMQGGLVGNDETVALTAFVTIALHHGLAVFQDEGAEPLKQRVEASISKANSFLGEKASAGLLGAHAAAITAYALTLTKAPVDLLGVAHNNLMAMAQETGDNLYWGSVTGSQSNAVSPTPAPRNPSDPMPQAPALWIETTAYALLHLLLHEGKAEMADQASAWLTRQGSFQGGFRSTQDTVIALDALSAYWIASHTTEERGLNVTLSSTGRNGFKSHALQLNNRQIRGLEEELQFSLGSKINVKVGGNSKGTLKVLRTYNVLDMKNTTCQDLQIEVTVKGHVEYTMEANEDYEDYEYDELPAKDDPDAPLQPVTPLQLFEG
# T2 sequence (P0C0L4 1454-1744 partner limits assumed): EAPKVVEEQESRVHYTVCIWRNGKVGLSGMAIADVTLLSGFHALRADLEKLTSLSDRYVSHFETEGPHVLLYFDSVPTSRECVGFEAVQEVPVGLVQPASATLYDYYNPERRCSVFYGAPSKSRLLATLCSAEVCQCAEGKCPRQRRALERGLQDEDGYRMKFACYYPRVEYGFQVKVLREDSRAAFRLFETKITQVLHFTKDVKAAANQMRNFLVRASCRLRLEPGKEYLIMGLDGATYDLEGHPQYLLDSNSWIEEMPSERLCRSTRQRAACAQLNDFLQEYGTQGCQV
# Experimental: as §4
# [6] = biological target: T3, purified complement component C1s (Homo sapiens, UniProt P09871); experiment: Fluorescence assay of AMC release by purified complement component C1s; details: 10 ug/ml enzyme; peptide 5 uM
# T3 construct: from tissue
# T3 sequence (P09871 16-688): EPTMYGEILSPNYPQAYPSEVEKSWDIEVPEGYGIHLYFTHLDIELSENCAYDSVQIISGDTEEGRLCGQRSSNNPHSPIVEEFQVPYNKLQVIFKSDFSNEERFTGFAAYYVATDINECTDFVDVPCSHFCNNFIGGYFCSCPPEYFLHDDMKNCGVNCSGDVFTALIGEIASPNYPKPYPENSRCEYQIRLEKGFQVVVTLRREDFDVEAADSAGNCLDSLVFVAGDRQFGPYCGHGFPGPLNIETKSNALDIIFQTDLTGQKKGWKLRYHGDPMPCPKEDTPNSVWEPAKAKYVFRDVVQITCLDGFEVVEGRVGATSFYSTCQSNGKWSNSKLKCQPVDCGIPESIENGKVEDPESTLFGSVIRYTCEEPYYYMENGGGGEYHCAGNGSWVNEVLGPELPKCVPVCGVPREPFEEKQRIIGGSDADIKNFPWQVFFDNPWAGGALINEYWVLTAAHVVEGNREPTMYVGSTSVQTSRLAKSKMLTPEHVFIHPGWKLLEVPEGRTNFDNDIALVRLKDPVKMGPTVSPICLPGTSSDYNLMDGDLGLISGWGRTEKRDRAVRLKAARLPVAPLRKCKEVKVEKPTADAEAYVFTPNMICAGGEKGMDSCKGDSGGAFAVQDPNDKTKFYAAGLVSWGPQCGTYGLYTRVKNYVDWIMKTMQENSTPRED
# Text: The data in Table V compare the cleavage rates (nM/minute) of these sequences. The fluorescence assay described in Section 8 for cleavage of Gly-Gly-Arg-AMC was used here. Complement components were purified and assayed by the method of Tack and Prahl (Biochem., 1976, 15:4513-4521).
# [7] = biological target: plasmin (Homo sapiens, UniProt P00747); experiment: Fluorescence assay of AMC release by plasmin; details: plasmin 1 ug/ml; peptide 5 uM
# plasmin, sequence (P00747 581-810 limits assumed, species assumed): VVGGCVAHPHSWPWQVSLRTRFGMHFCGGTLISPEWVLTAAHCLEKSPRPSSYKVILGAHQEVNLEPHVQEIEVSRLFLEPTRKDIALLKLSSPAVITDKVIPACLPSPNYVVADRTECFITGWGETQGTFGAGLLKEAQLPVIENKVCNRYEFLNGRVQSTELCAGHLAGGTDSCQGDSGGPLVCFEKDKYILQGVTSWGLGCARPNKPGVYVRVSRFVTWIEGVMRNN
# plasmin, sequence (P00747 97-580 partner limits assumed, species assumed): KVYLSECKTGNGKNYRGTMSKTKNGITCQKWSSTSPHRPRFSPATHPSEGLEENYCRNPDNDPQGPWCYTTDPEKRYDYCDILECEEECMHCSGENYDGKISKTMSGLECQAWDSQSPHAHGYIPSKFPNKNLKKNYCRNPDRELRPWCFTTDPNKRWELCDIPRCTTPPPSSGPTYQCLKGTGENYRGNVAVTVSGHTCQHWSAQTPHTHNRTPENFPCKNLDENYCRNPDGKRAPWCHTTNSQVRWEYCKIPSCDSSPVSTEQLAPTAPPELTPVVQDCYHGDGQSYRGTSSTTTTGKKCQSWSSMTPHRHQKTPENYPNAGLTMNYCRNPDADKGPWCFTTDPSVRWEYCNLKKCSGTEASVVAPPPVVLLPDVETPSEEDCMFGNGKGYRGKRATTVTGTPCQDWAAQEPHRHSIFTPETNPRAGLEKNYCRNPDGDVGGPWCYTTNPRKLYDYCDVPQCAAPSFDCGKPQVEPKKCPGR
# Experimental: as §4
"Cleavage Rates, Urokinase [2] [nM/min]",Compound,"Cleavage Rates, Trypsin [1] [nM/min]",further results
35,Cc1cc(=O)oc2cc(NC(=O)[C@H](CCCNC(=N)N)NC(=O)CNC(=O)[C@@H](N)CCC(=O)O)ccc12 [Glu-Gly-Arg-AMC] (H-Glu-Gly-Arg-{AMC}),140,–
0,Cc1cc(=O)oc2cc(NC(=O)[C@H](CCCNC(=N)N)NC(=O)[C@H](CCCNC(=N)N)NC(=O)[C@H](CCC(=O)O)NC(=O)OC(C)(C)C)ccc12 [Boc-Glu-Arg-Arg-AMC] (Boc-Glu-Arg-Arg-{AMC}),3.7,–
0,Cc1cc(=O)oc2cc(NC(=O)[C@H](CCCNC(=N)N)NC(=O)[C@H](Cc3ccccc3)NC(=O)[C@@H]3CCCN3)ccc12 [Pro-Phe-Arg-AMC] (H-Pro-Phe-Arg-{AMC}),0,–
27,"Cc1cc(=O)oc2cc(NC(=O)[C@H](CCCNC(=N)N)NC(=O)CNC(=O)CN)ccc12 [Gly--Gly--Arg--AMC, Gly-Gly-Arg-AMC]",450,"Cleavage Rates, complement component (column head drawing 17) [5]: 0.9 to 1.2 nM/min; Cleavage Rates Released Group, Trypsin ([1]; trypsin 100 ug/ml, substrate 100 uM): 20,000 nM/min.; Cleavage Rates, complement component (column head drawing 18) [6]: 0.9 to 1.2 nM/min; Cleavage Rates, Plasmin [7]: 0.005 nM/min"

# The next lines start with the compound.
Compound,"Cleavage Rates, Urokinase [2] [nM/min]","Cleavage Rates, Trypsin [1] [nM/min]",further results
"Cc1cc(=O)oc2cc(NC(=O)[C@H](CCCNC(=N)N)NC(=O)CNC(=O)[C@H](CC(C)C)NC(=O)OC(C)(C)C)ccc12 [Boc-Leu-Gly-Arg-AMC, Boc-leu-gly-arg-7-amino-4-methylcoumarin] (Boc-Leu-Gly-Arg-{AMC})",3.7,750,–
Glycine-Glycine-Arginine-Tyrosine [Gly--Gly--Arg--Tyr*],–,–,"Cleavage Rates Released Group, Urokinase [3]: .01 nM/min; Cleavage Rates Released Group, Trypsin [4]: 4 nM/min"
Cc1cc(=O)oc2cc(NC(=O)[C@H](CCCNC(=N)N)NC(=O)CNC(=O)[C@@H](NC(=O)OC(C)(C)C)C(C)C)ccc12 [Boc-Val-Gly-Arg-AMC] (Boc-Val-Gly-Arg-{AMC}),2.8,720,–
Cc1cc(=O)oc2cc(NC(=O)[C@H](CCCNC(=N)N)NC(=O)[C@H](CO)NC(=O)[C@H](Cc3ccccc3)NC(=O)OC(C)(C)C)ccc12 [Boc-Phe-Ser-Arg-AMC] (Boc-Phe-Ser-Arg-{AMC}),0.044,17,–
Cc1cc(=O)oc2cc(NC(=O)[C@H](CCCCN)NC(=O)[C@H](CCCCN)NC(=O)[C@@H](N)CCC(=O)O)ccc12 [Glu-Lys-Lys-AMC] (H-Glu-Lys-Lys-{AMC}),0,0.62,–
Cc1cc(=O)oc2cc(NC(=O)[C@H](CCCNC(=N)N)NC(=O)[C@@H]3CCCN3C(=O)[C@@H](NC(=O)OC(C)(C)C)C(C)C)ccc12 [Boc-Val-Pro-Arg-AMC] (Boc-Val-Pro-Arg-{AMC}),0,3.8,–
"PGRVVGY [Pro--Gly--Arg--Val--Val--Gly--Tyr*, plasminogen analog]",–,–,"Cleavage Rates Released Group, Urokinase [3]: .01 nM/min; Cleavage Rates Released Group, Trypsin [4]: 3 nM/min"
